Measured values published in paper PMC10628858, “Investigation of new ferrocenyl-artesunate derivatives as antiparasitics” (Dalton Transactions (Cambridge, England : 2003), 2023).
Several values for one entry are separate records, joined by “and”; a condition that tells them apart may be missing. Equal values may be shown once. Read-outs that look alike come from different tables or passages of the source.

Assays:
P. falciparum, NF54 = experiment: P. falciparum growth inhibition assay (Malstat); assay type: cell-based, Plasmodium falciparum; conditions: 72 h, maximum concentration tested 6000 nM, three independent experiments in triplicate, ± SEM, read-out: IC50 against P. falciparum, NF54
Method: The antimalarial activities of C1 to C4 and F1 to F3 were determined against the wild-type drug sensitive strain of P. falciparum, NF54. […]. Further, a close link between activity and oxidation potentials of the drugs was found. The lower the oxidation potential of the ferrocene moiety, the higher the activity of the final compound, giving directions for future compound development.
The drugs were prepared as 10 mM stocks in sterile DMSO. The drugs were then diluted using freshly prepared growth medium to the desired testing concentrations. Chloroquine and artesunate were used as standards. A full dose–response was preformed using a 96-well plate assay and the IC50 values determined. The maximum concentration tested was 6 μM which was then serially diluted 2-fold in growth media. The plates were incubated at 37 °C for 72 h at 3% O2 and 4% CO2. After 72 h the wells were resuspended and 15 μL of the suspension was transferred to a duplicate plate containing 100 μL of Malstat reagent and 25 μL of nitroblue tetrazolium solution. The plates were allowed 20 minutes in the dark to develop and the absorbance of each well was measured using UV-Vis at 620 nm.

[1] = tested on: clinically resistance (CQ-R) isolates of P. falciparum; parameters: method as in PMID 21894260; conditions: cited from earlier work
[2] = Cyclic voltammetry (oxidation/reduction potentials); assay type: physicochemical; conditions: Ag/AgCl electrode, scan rate 100 mV s^−1, 0.100 M [NBu4][PF6] in MeCN
PNT1A cells = experiment: MTT cell viability assay, PNT1A; assay type: cell-based, human; conditions: 48 h
Method: (§1) To assess the cytotoxicity of the four compounds a MTT cell viability assay using human embryonic kidney (HEK293) and human prostatic (PNT1A) cell lines were performed. […] The long chain compounds C1 and C3 were also shown to be non-cytotoxic towards the HEK293 cell line.
(§2) The immortalised human prostatic epithelial cell line, PNT1A (Sigma Aldrich, 95012614) was cultured in RPMI-1640 containing 10% foetal calf serum (Life Technologies, South Africa). The human embryonic kidney cell line HEK293 (ATCC) was cultured in DMEM (Life Technologies, South Africa). Both cell lines were cultured at 37 °C under 5% CO2 with 1% penicillin and streptomycin. Cancer cell cytotoxicity was evaluated using the MTT viability assay according to our previous method.[49] Briefly, cells were seeded at a density of 3 × 10^3 cells per well in 96-well plates and allowed to settle overnight. A 100 mM stock of C1/C2 and a 50 mM stock solution of C3/C4 in DMSO was prepared from which dilutions were made. The compound was then added to the cells in triplicate to obtain the indicated concentrations and 0.1% DMSO. Controls included cells treated with […] DMSO alone. After 48 h, 10 μL of 5 mg mL^−1 MTT (3-(4,5-dimethylthiazol-2-yl)-2,5-diphenyltetrazolium bromide) (Sigma-Aldrich) was added, and incubated with the cells for 4 h, followed by addition of 100 μL 10% SLS, 0.01 M HCL. The plates were read at 595 nm on a Multiscan FC plate reader (Thermo Scientific) and the data was fitted to a variable slope dose–response curve using Graphpad prism v6 to obtain the cytotoxicity IC50. The assay was repeated independently three times where inhibition was observed.

[3] = Aqueous stability (hydrolysis) by UV-Vis kinetic scan in 10% MeOH (aq); assay type: physicochemical; conditions: change in absorbance at 254 nm over one hour, ExpDec1 fit
Method: Since biological systems are comprised of water, the behavior and stability of a drug in aqueous media is important. To determine the stability, each complex was dissolved in MeOH and then diluted to 10% MeOH (aq). The solutions were then monitored by UV-Vis spectroscopy using a kinetic scan in the range 190–1100 nm over 1 hour. […] Hydrolysis was also supported by RP-HPLC in which new peaks emerged corresponding to the starting ferrocene precursors, F2 and F4. […] […] The major difference being between C1/C2 and C3/C4 is the nature of the linkage either being an ester or an amide bond. It is expected that the hydrolysis of C2 would occur quicker due to the more labile nature of the ester bond.
UV-Vis studies were performed by dissolving each complex in methanol to a concentration of 1 mM. This was then diluted using distilled water in a 10% methanol/water mixture giving a final concentration of 100 μM. The complexes were then monitored using a kinetic scan between the range 190–1100 nm scanning each minute over the course of one hour. […]

[4] = tested on: T. gondii (ΔKu80::mNeonGreen); experiment: T. gondii growth inhibition assay (mNeonGreen fluorescence); assay type: cell-based, Toxoplasma gondii
Method: […]. The rate of hydrolysis of C2 and C4 is closely correlated to the activity seen against T. gondii, such that the more readily the complex separates into its constituents, parts the better the overall activity.
To further investigate whether the accumulation of ROS was implicated in the MoA, the growth inhibition studies were repeated in the presence of the ROS scavenger N-acetyl cysteine (NAC) (Table 5).
Growth inhibition assays were performed in black, clear-bottomed 96 well plates preseeded with Human foreskin fibroblasts (HFFs) as described previously.[48] ΔKu80:mNeonGreen T. gondii were counted using a hemeocytometer and media from the host-cell seeded plate was aspirated and replaced with either 200 μL of D3 or 200 μL of media + 5000 parasites per well. Infected cells were incubated for 2 hours at 37 °C with 5% CO2 to allow for invasion. Following this, the media was removed and replaced with 100 μL fresh media. 100 μL of media containing 100 μM of the indicated drug in sterile DMSO was added and serially diluted. The parasites were then incubated for four days at 37 °C with 5% CO2 then flourescense read using the PHERAstar microplate reader. After removal of background, fluorescence values were normalised to untreated and plotted. Data analysis and non-linear regression was performed in Prism.

HEK293 cells = experiment: MTT cell viability assay, HEK293; assay type: cell-based, human; conditions: 48 h
Method: as §1, §2

[5] = Kinetic aqueous solubility, turbidimetric assay; assay type: physicochemical; conditions: for solubility at 4 h: aqueous buffer, kinetic from dmso stock, absorbance 620 nm
Method: The kinetic solubility of the complexes was determined by means of a turbidimetric assay. The complexes were first dissolved in dimethyl sulfoxide (DMSO) which was then serially diluted in either phosphate buffered saline (PBS) or 4-(2-hydroxyethyl)-1-piperazineethanesulfonic acid (HEPES). The extent of precipitation was then measured using the absorbance at 620 nm.
PBS was prepared by dissolving one PBS tablet in 200 mL of distilled water at 25 °C yielding a buffered solution containing 10 mM phosphate buffer, 3.0 mM KCl and 140 mM NaCl. The pH was then confirmed to be at 7.4 with a pH meter. A 0.025 M HEPES buffer was prepared by dissolving HEPES free acid 5.00 mmol in distilled water (±180 mL) and titrating the solution with 0.100 M NaOH until a pH 7 was reached, the volume was then made up to 200 mL using distilled water. A 10.0 mM stock of each drug was prepared in DMSO. […] 4 μL of the drugs was then pipetted into a 96-well plate loaded with 196 μL of either the desired buffer solution or DMSO. The test plates were then incubated at 37 °C for 4 hours following which the UV-Vis absorbance was measured at 620 nm and the absorbances corrected by subtracting the blank.

T. gondii [6] = experiment: Determination of intracellular ROS levels with CellROX by flow cytometry; assay type: cell-based, Toxoplasma gondii; conditions: 5 μM, 6 hours, 50 000 parasites, vs untreated
Method: Since both ferrocene and artesunate are able to generate ROS, we attempted to quantify the intracellular ROS levels in the parasite using CellROX, a compound which fluoresces in the presence of ROS. Treatment with artesunate was included as positive control as previous studies have linked artesunate treatment to ROS accumulation.[44] The parasites were treated with 5 μM of complexes C1, C3 and C4, and incubated for 6 hours. […] Since T. gondii rely predominately on heme biosynthesis as opposed to incorporation of heme from host hemoglobin, the concentration of iron present in the parasite is lower.[45] But, by incorporating an iron center in the molecule the slower activation may be circumvented leading to quicker cell death and a decreased CellROX reading.
Fig. 5 CellROX fluorescence quantified by flow cytometry from 50 000 parasites. T. gondii were untreated (grey) or treated for 6 hours with 5 μM compounds (blue) or artesunate (red) as a positive control.
Intracellular parasites were treated with 5 μM of the drug and incubated at 37 °C with 5% CO2 for either 18 hours or 6 hours. The parasites were released from host cells by scraping and syringing followed by passing through 3 μm filters to remove host-cell debris. The parasites were spun down at 6000 RPM for 10 minutes and resuspended in 500 μL PBS. 100 μL of the parasite suspension was placed in a FACS tube and a stock solution of CellROX dye in PBS (1 : 125 dilution) was added to this. This was then incubated in the dark at 37 °C for 1 hour and then read using a BD Celesta. Parasites were gated on forward and side scatter and on mNeonGreen fluorescence and histograms of Cy5 signal presented. Data analysis was performed using Flowjo.

T. gondii [7] = tested on: T. gondii; parameters: method as in PMID 32968076; conditions: read-out: IC50 against T. gondii; cited from earlier work

## OC[c-]1cccc1.[Fe+2].c1cc[cH-]c1 [Compound F2, ferrocene methanol]
P. falciparum, NF54
  IC50: 3.4 ± 0.096 µM

## CN(C)Cc1ccc[c-]1CNc1ccnc2cc(Cl)ccc12.[Fe+2].c1cc[cH-]c1 (centres unmarked) [Ferroquine, ferroquine]
[1]
  Activity against CQ-R isolates of P. falciparum: less than 30 nM

## [Fe+2].c1cc[cH-]c1.c1cc[cH-]c1 [Ferrocene, reference compound]
[2]
  E 1/2: 0.446 V
  E Ox: 0.499 V
  E Red: 0.393 V
  ΔE: 0.106 V

## CC1CCC2C(C)C(OC(=O)CCC(=O)OC[c-]3cccc3)OC3OC4(C)CCC1C32OO4.[Fe+2].c1cc[cH-]c1 (centres unmarked) [Compound C2]
PNT1A cells
  IC50: > 100 µM
[3]
  Half-life: 3.0 ± 0.16 min
  Rate constant (hydrolysis): 0.23 ± 0.013 min⁻¹
[4]; four days, in HFF host cells, three independent experiments in triplicate, ± SEM, read-out: IC50 against T. gondii
  IC50: 0.28 ± 0.022 µM
HEK293 cells
  IC50: 53 ± 5.7 µM
[5]; turbidimetric assay, buffer not named
  Solubility range: 23 to 47 µg/mL
P. falciparum, NF54
  IC50: 0.019 ± 0.004 µM
[2]
  E 1/2: 0.503 V
  E Ox: 0.561 V
  E Red: 0.445 V
  ΔE: 0.116 V

## NCCNC(=O)[c-]1cccc1.[Fe+2].c1cc[cH-]c1 [Compound F3, N-(2-aminoethyl)ferrocenamide]
P. falciparum, NF54
  IC50: > 6 µM

## C[C@H]1[C@H](OC(=O)CCC(=O)O)O[C@@H]2O[C@@]3(C)CC[C@H]4[C@H](C)CC[C@@H]1[C@@]24OO3 [Artesunate, artesunate]
[4]; Toxoplasma gondii, 96 h, read-out: IC50 against T. gondii
  IC50: 0.2 ± 0.006 µM
[4]; Toxoplasma gondii, read-out: IC50 + NAC against T. gondii
  IC50: 0.31 ± 0.028 µM
T. gondii [6]
  Change in CellROX signal (intracellular ROS): increase
P. falciparum, NF54; Plasmodium falciparum, NF54
  IC50: 0.003 ± 0.001 µM

## C[C@H]1[C@@H](O)O[C@@H]2O[C@@]3(C)CC[C@H]4[C@H](C)CC[C@@H]1[C@@]24OO3 [DHA, dihydroartemisinin]
T. gondii [7]
  IC50: ~0.066 µM

## COC(=O)[C@H]1[C@H]2C[C@@H]3c4[nH]c5cc(OC)ccc5c4CCN3C[C@H]2C[C@@H](OC(=O)c2cc(OC)c(OC)c(OC)c2)[C@@H]1OC [Reserpine, reference compound]
[5]; HEPES buffer with 2% DMSO, HEPES pH 7, 37 °C, read-out: Aqueous solubility range, HEPES
  solubility at 4 h: 40 µM to 80 µM and 24 µg/mL to 50 µg/mL
[5]; phosphate buffered saline (PBS) with 2% DMSO, PBS pH 7.4, 37 °C, read-out: Aqueous solubility range, PBS
  solubility at 4 h: 20 µM to 40 µM and 12 µg/mL to 24 µg/mL

## O=C(NCCO)[c-]1cccc1.[Fe+2].c1cc[cH-]c1 [Compound F1, N-(Hydroxyethyl)ferrocenamide]
P. falciparum, NF54
  IC50: > 6 µM
